According to PubChem BioAssay (NCI):
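Cells were grown in 96-well plates and exposed to each compound for 48 hours at five concentrations; endpoints were interpolated linearly between bracketing concentrations, or set to the highest concentration if not reached. TGI: concentration producing complete growth inhibition.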

Tested on: NCI-H460 lung
Test: DTP human tumour cell line panel, 48 h

| Compound | TGI [µM] |
| --- | --- |
| COc1ccc(CCNC2=CC(=O)c3ncccc3C2=O)cc1OC | 1.75 |
| COc1ccc2c(c1)CCc1c-2[nH]c2ccc(OC)cc12 | > 100 |
| CCN(CC)/C(Cl)=C(Cl)\C(=C1\Nc2ccc(OC)cc21)[N+](=O)[O-] | > 100 |
| COc1cc(/C=C2\C[C@H]3[C@@H]4CC=C5C[C@@H](O)CC[C@]5(C)[C@H]4CC[C@]3(C)C2=O)cc(OC)c1OC | > 100 |
| O=C1NC(=O)C(c2c[nH]c3cc(Br)ccc23)=C1c1cn(C(c2ccccc2)(c2ccccc2)c2ccccc2)cn1 | 31.4 |
| Cn1ccc(C(=O)NCCOCCNC(=O)c2ccn(C)c(=O)c2O)c(O)c1=O | > 100 |
| CSC1=C(SC)SC(=C2SC3=C(SC(=C4SCCS4)S3)S2)S1 | > 100 |
| COn1cc(C=O)c2ccccc21 | > 100 |
| CCOC(=O)C1=C(Nc2cccc(OC)c2)OCC1=O | > 100 |
| C#CCn1ncc2c(SCc3ccccc3)ncnc21 | > 100 |
| CCC1OC2C(CC=C(C)C)=C3OC(C)(O)C(C)(CC)C(OC(=O)c4ccccc4)C3=C3OC(=O)C=C1C32 (configuration not stated) | > 100 |
| CCN(CC)c1ccc2cc(-c3nnc(-c4ccccc4)o3)c(=O)oc2c1 | > 51.3 |
| CC1=CC(C2/C(=N/O)C=C(C)CC2(C)C)C(O)C(C)(C)C1 (configuration not stated) | 43.1 |
| O=C(CC(c1ccccc1)N1CCCCC1)c1ccccc1 (configuration not stated) | 26.6 |
| O=C(O)c1nc(-c2ccccn2)c(-c2ccccn2)nc1C(=O)O | 4.85 |

Tested on: SF-295 CNS
Test: DTP human tumour cell line panel, 48 h

| Compound | TGI [µM] |
| --- | --- |
| N#CSc1nc[nH]c1C(N)=O | > 100 |
| CN(C)C(=O)NCCN1CCCCCc2ccccc21 | > 100 |
| CC1(C#N)CC(C)(C)C(/C=C2/CC(C)(C)C(/C=C3/OC(=N)CC3(C)C)=N2)=N1 (configuration not stated) | 60.9 |
| Cc1cccc(/C=N/NC(=S)NCCc2ccccn2)n1 | > 100 |
| O=C(C(=O)N1CCc2ccccc21)c1c[nH]c2ccccc12 | > 10 |
| C=CCNC1=C2C[C@@H](C)C[C@@H](OC)[C@@H](OC(=O)CCCN)[C@H](C)/C=C(\C)[C@@H](OC(N)=O)[C@H](OC)/C=C\C=C(/C)C(=O)NC(=CC1=O)C2=O | 31.6 |
| C[C@]12CCC(=O)C=C1CC[C@@H]1C2CC[C@]2(C)c3nn(-c4ccc(F)cc4)nc3CC12 (some centres not stated) | > 100 |
| CCOC(=O)C(N)CSC(=O)NC (configuration not stated) | 592 |
| CC(=O)N(C(=O)CC(=O)N/N=C\c1ccc(Br)c(N(CCC#N)CCC#N)c1)c1ccc(Cl)cc1 | > 100 |
| CCOC(=O)c1csc(NC(=O)C(C)N2CCCCC2)n1 (configuration not stated) | > 100 |
| O=C1c2cc3c(cc2CC12Cc1cc4c(cc1C2=O)CCC4)CCCC3 (configuration not stated) | > 100 |
| CC1(C)OCC2OC3(c4nc(C#N)c(N)o4)OC(C)(C)OC3C2O1 (configuration not stated) | > 100 |
| Cc1cccc2c1Oc1cc(Cl)ccc1C2NC(=O)CCN1CCOCC1 (configuration not stated) | > 100 |
| COC(=O)C1=C(C)NC(C)=C(C(=O)OC)C1c1ccc(/[N+]([O-])=C/c2ccccc2)cc1 | > 100 |
| CCN(CC)CCn1nc(N)c2nc3cc(Cl)ccc3nc21 | > 100 |
| COc1ccc(CCNC2=CC(=O)c3ncccc3C2=O)cc1OC | 2.21 |
| COc1ccc2c(c1)CCc1c-2[nH]c2ccc(OC)cc12 | > 100 |
| CCN(CC)/C(Cl)=C(Cl)\C(=C1\Nc2ccc(OC)cc21)[N+](=O)[O-] | > 100 |
| O=C(NCCCNC(=O)c1ccc2c(O)c(O)ccc2c1)c1ccc2c(O)c(O)ccc2c1 | 38.2 |
| COc1cc(/C=C2\C[C@H]3[C@@H]4CC=C5C[C@@H](O)CC[C@]5(C)[C@H]4CC[C@]3(C)C2=O)cc(OC)c1OC | 52.7 |
| O=C1NC(=O)C(c2c[nH]c3cc(Br)ccc23)=C1c1cn(C(c2ccccc2)(c2ccccc2)c2ccccc2)cn1 | > 100 |
| CSC1=C(SC)SC(=C2SC3=C(SC(=C4SCCS4)S3)S2)S1 | > 100 |
| COn1cc(C=O)c2ccccc21 | > 95.9 |
| CCOC(=O)C1=C(Nc2cccc(OC)c2)OCC1=O | > 100 |
| C#CCn1ncc2c(SCc3ccccc3)ncnc21 | > 100 |
| CCC1OC2C(CC=C(C)C)=C3OC(C)(O)C(C)(CC)C(OC(=O)c4ccccc4)C3=C3OC(=O)C=C1C32 (configuration not stated) | > 100 |
| CCN(CC)c1ccc2cc(-c3nnc(-c4ccccc4)o3)c(=O)oc2c1 | > 100 |
| CC1=CC(C2/C(=N/O)C=C(C)CC2(C)C)C(O)C(C)(C)C1 (configuration not stated) | 32.9 |
| O=C(CC(c1ccccc1)N1CCCCC1)c1ccccc1 (configuration not stated) | 31.2 |
| O=C(O)c1nc(-c2ccccn2)c(-c2ccccn2)nc1C(=O)O | 21.8 |

Tested on: SNB-19 CNS
Test: DTP human tumour cell line panel, 48 h

| Compound | TGI [µM] |
| --- | --- |
| N#CSc1nc[nH]c1C(N)=O | > 100 |
| CN(C)C(=O)NCCN1CCCCCc2ccccc21 | > 100 |
| CC1(C#N)CC(C)(C)C(/C=C2/CC(C)(C)C(/C=C3/OC(=N)CC3(C)C)=N2)=N1 (configuration not stated) | > 100 |
| Cc1cccc(/C=N/NC(=S)NCCc2ccccn2)n1 | > 100 |
| O=C(C(=O)N1CCc2ccccc21)c1c[nH]c2ccccc12 | > 10 |
| C=CCNC1=C2C[C@@H](C)C[C@@H](OC)[C@@H](OC(=O)CCCN)[C@H](C)/C=C(\C)[C@@H](OC(N)=O)[C@H](OC)/C=C\C=C(/C)C(=O)NC(=CC1=O)C2=O | 32.2 |
| C[C@]12CCC(=O)C=C1CC[C@@H]1C2CC[C@]2(C)c3nn(-c4ccc(F)cc4)nc3CC12 (some centres not stated) | > 100 |
| CCOC(=O)C(N)CSC(=O)NC (configuration not stated) | 600 |
| CC(=O)N(C(=O)CC(=O)N/N=C\c1ccc(Br)c(N(CCC#N)CCC#N)c1)c1ccc(Cl)cc1 | > 100 |
| CCOC(=O)c1csc(NC(=O)C(C)N2CCCCC2)n1 (configuration not stated) | > 100 |
| O=C1c2cc3c(cc2CC12Cc1cc4c(cc1C2=O)CCC4)CCCC3 (configuration not stated) | > 100 |
| CC1(C)OCC2OC3(c4nc(C#N)c(N)o4)OC(C)(C)OC3C2O1 (configuration not stated) | > 100 |
